Reference: patent publication US12497405B2, “Bicyclic heterocycle compounds methods of use thereof for the treatment of herpes viruses” (Merck Sharp & Dohme LLC, priority 2019, dated 2025)

Assays:
[1] = molecular target: Human cytomegalovirus DNA polymerase (Human cytomegalovirus (strain AD169) (HHV-5) (Human herpesvirus 5), UniProt P08546); assay: CMV polymerase assay (AlphaLISA); format: biochemical; conditions: HCMV polymerase 0.2 nM, 30 min pre-incubation, 60 minute at 37° C.
Summary of the method: (§1)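 Baculovirus/SF21-expressed polymerase (HCMV 0.2 nM, VZV 0.4 nM final) was preincubated 30 min at room temperature with compound in HEPES pH 7.5/Mg buffer. Reactions with 1.6 nM DIG-primer/template, low nM dNTPs and biotin-dUTP ran 60 min at 37 °C. AlphaLISA readout, normalized to controls, 4-parameter IC50.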

[2] = molecular target: varicella zoster virus DNA polymerase (Varicella-zoster virus (strain Dumas) (HHV-3) (Human herpesvirus 3), UniProt P09252); assay: VZV polymerase assay (AlphaLISA); format: biochemical; conditions: VZV polymerase 0.4 nM, 30 min pre-incubation, 60 minute at 37° C.
Summary of the method: as §1

CMV = assay: Viral qPCR assay, CMV; format: cell-based; conditions: Human betaherpesvirus 5, 72 h, infected cells, viral genome copies by qPCR normalized to PPIA, read-out: CMV Cell EC50
Summary of the method: (§2)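 EC50 from 4-parameter fit of viral genome copies normalized to cellular PPIA, quantified by TaqMan qPCR with plasmid standard curves. Cells (MRC5, Vero or MeWo) infected in suspension, exposed ~72 h at 37 °C to 10-point 3-fold dilutions; controls uninfected and DMSO-infected cells.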

HSV1 = assay: Viral qPCR assay, HSV1; format: cell-based; conditions: Human alphaherpesvirus 1, 72 h, infected cells, viral genome copies by qPCR normalized to PPIA, read-out: HSV1 Cell EC50
Summary of the method: as §2

HSV2 = assay: Viral qPCR assay, HSV2; format: cell-based; conditions: Human alphaherpesvirus 2, 72 h, infected cells, viral genome copies by qPCR normalized to PPIA, read-out: HSV2 Cell EC50
Summary of the method: as §2

Row | Compound | IC50 [1] | IC50 [2] | EC50 (CMV) | EC50 (HSV1) | EC50 (HSV2)
1 | Cc1nc2cc(-c3cn(C(F)F)cn3)c(O[C@H]3CCN4C(=O)OC[C@@H]4C3)cc2c(=O)n1Cc1ccc(C#N)cc1 [Example 80] | 7.6 nM | 5.6 nM | 124 nM | 157 nM | 227 nM
2 | Cc1nc2cc(-c3nc4n(n3)CCN(C)C4)c(O[C@H]3CCN4C(=O)OC[C@@H]4C3)cc2c(=O)n1Cc1ccc(Cl)cc1 [Example 81] | 15 nM | 27 nM | 265 nM | 364 nM | 307 nM
3 | Cc1nc2cc(-c3cn(C(F)F)cn3)c(O[C@H]3CCN4C(=O)OC[C@@H]4C3)cc2c(=O)n1Cc1ccc(Cl)cc1 [Example 82] | 5.5 nM | 7.1 nM | 52 nM | 63 nM | 45 nM
4 | Cc1nc2cc(-c3cc4n(n3)CCNC4)c(O[C@H]3CCN4C(=O)OC[C@@H]4C3)cc2c(=O)n1Cc1ccc(Cl)cc1 [Example 84] | 0.44 nM | 0.44 nM | 177 nM | 113 nM | 102 nM
5 | Cc1nc2cc(-c3cc4n(n3)CCN(C)C4)c(O[C@H]3CCN4C(=O)OC[C@@H]4C3)cc2c(=O)n1Cc1ccc(Cl)cc1 [Example 86] | 0.44 nM | 0.44 nM | 68 nM | 58 nM | 41 nM
6 | Cc1nc2cc(-c3cn4c(n3)CN(C)CC4)c(O[C@H]3CCN4C(=O)OC[C@@H]4C3)cc2c(=O)n1Cc1ccc(C#N)cc1 [Example 87] | 0.44 nM | 0.8 nM | 198 nM | 313 nM | 275 nM
7 | COc1cnc(-c2cc3nc(C)n(Cc4ccc(Cl)cc4)c(=O)c3cc2O[C@H]2CCN3C(=O)OC[C@@H]3C2)nc1 [Example 88] | 28 nM | 25 nM | 718 nM | 543 nM | 225 nM
8 | Cc1ncc(-c2cc3nc(C)n(Cc4ccc(Cl)cc4)c(=O)c3cc2O[C@H]2CCN3C(=O)OC[C@@H]3C2)cn1 [Example 90] | 18 nM | 16 nM | 241 nM | 214 nM | 115 nM
9 | Cc1nc2cc(-c3cnc(C4CC4)nc3)c(O[C@H]3CCN4C(=O)OC[C@@H]4C3)cc2c(=O)n1Cc1ccc(Cl)cc1 [Example 95] | 18 nM | 19 nM | 366 nM | 301 nM | 182 nM
10 | Cc1nc2cc(-c3cnc(N4CCOCC4)nc3)c(O[C@H]3CCN4C(=O)OC[C@@H]4C3)cc2c(=O)n1Cc1ccc(Cl)cc1 [Example 97] | 14 nM | 15 nM | 198 nM | 163 nM | 96 nM
11 | CCOc1ncc(-c2cc3nc(C)n(Cc4ccc(Cl)cc4)c(=O)c3cc2O[C@H]2CCN3C(=O)OC[C@@H]3C2)cn1 [Example 98] | 16 nM | 15 nM | 284 nM | 256 nM | 185 nM
12 | Cc1nc2cc(-c3cc4n(n3)CCN(CC(F)(F)F)C4)c(O[C@H]3CCN4C(=O)OC[C@@H]4C3)cc2c(=O)n1Cc1ccc(Cl)cc1 [Example 147] | 7 nM | 12 nM | 229 nM | 274 nM | 96 nM
